Values joined by “and” are separate entries in the source; they are usually repeats but may differ in a detail not shown here. Equal entries are not always repeated. “Also recorded” adds a separate entry of the source. Where two headings read alike, the source gives them in different places.
Tests used:
[1] = Pharmacokinetics of orally administered squalamine (ENT-01), Phase 2 trial; format: in vivo, human; conditions: for systemic absorption following oral administration: this study, PD patients; for oral bio-availability (estimated): based on pharmacokinetic behavior of intravenously administered squalamine in prior clinical studies
Procedure: PK data were collected on the 10 patients enrolled in Stage 1 and 10 patients enrolled in Stage 2 to determine the extent of systemic absorption. In Stage 1, PK data were obtained at each visit, pre-medication, at 1, 2, 4, 8 and 24 hours (Table 10). In Stage 2, PK was measured on days 1 and 6 of the randomization period pre-medication, at 1, 2, 4 and 8 hours (Table 11).
The mean Cmax, Tmax and T1/2 and AUC of the squalamine ion following squalamine (ENT-01) oral dosing for Stage 1 patients. The PK analyses are only approximate, as the lower limit of the validated concentration range was 10 ng/ml; most of the measured concentrations fell below that value. The mean Cmax, Tmax and T1/2 and AUC of the squalamine ion following squalamine (ENT-01) oral dosing for Stage 2 patients. The PK analyses are only approximate, as the lower limit of the validated concentration range was 0.5 ng/ml.

[2] = system: mouse models of PD; conditions: orally administered, mice with constipation due to overexpression of human αS (West et al, manuscript in preparation); cited from earlier work
[3] = system: IPANs (intrinsic primary afferent neuron); conditions: isolated bowel segment, PD mouse model; increasing frequency of propulsive peristaltic contractions; cited from earlier work
[4] = prior studies; systemic blood levels one thousand-fold greater than oral; cited from earlier work
[5] = system: patients with PD and constipation; experiment: Effect on bowel function, Phase 2 trial (Stage 1 single dose, Stage 2 daily dosing); format: in vivo, human
Procedure: Overview: The subjects of the trial all had PD and experienced constipation, which is a characteristic of PD. The primary objectives of the trial involving patients with PD and constipation were to evaluate the safety and pharmacokinetics of oral squalamine (ENT-01) and to identify the dose required to improve bowel function, which was used as a clinical endpoint.
ENT-01 is the phosphate salt of squalamine. For this study it has been formulated as a small 25 mg coated tablet. Dosing ranged from 25 mg to 250 mg, with dosages greater than 25 mg requiring multiple pills (e.g., 50 mg=two 25 mg pills). Dosing instructions=take 60 mins before breakfast with 8 oz. water. The dose was taken by each patient upon awakening on an empty stomach along with 8 oz. of water simultaneously to dopamine. The subject was not allowed to ingest any food for at least 60 minutes after study medication. The compound is highly charged and will adsorb to foodstuffs, so it was administered prior to feeding.
Following successful screening, all subjects underwent a 14-day run-in period where the degree of constipation was assessed through a validated daily log (Zinsmeister et al. 2013) establishing baseline CSBMs/week. Subjects with an average of <3 CSBMs/week proceeded to dosing.
(§1) Tolerability limits included diarrhea or vomiting.
(§2) In Stage 2, 34 patients were evaluated.
The primary efficacy outcome variable was whether or not a subject was a “success” or “failure”. This is an endpoint based on subject diary entries for the “fixed dose” period prior to the endpoint assessment defined as average complete stool frequency increase by 1 or more over baseline, or 3 or more complete spontaneous stools/week. The subject was deemed a “success” if s/he met one or more of the criteria listed above, otherwise the subject was deemed a “failure”. The primary analysis was based on all subjects with a baseline assessment and an assessment at the end of the “fixed-dose” period and was a comparison of the proportion of successes with 0.10 (the null hypothesis corresponding to no treatment effect).

[6] = system: patients with PD and constipation; experiment: Safety and adverse event profile, Phase 2 trial; format: in vivo, human
Procedure: as §1, §2

[7] = system: patients with PD and constipation; experiment: CNS symptoms in Stage 2 (UPDRS, MMSE, PDHQ, BDI-II, hallucinations); format: in vivo, human; conditions: 6 patients with hallucinations (5) or delusions (1) at baseline
Source text: (8) Beck Depression Inventory (BDI-II);
(9) Unified Parkinson's Disease Rating Scale (UPDRS), which consists of 42 items in four subscales (Part I=Non-Motor Aspects of Experiences of Daily Living (nM-EDL) (1.1 cognitive impairment, 1.2 hallucinations and psychosis, 1.3 depressed mood, Part II=Motor Aspects of Experiences of Daily Living (M-EDL), Part III=Motor Examination, and Part IV=Motor Complications;
(10) Mini Mental State Examination (MMSE);
(12) The University of Miami Parkinson's Disease Hallucinations Questionnaire (UM-PDHQ); […]
Assessments were made at baseline and at the end of the fixed dose and washout periods. Circadian system status was evaluated by continuously monitoring wrist skin temperature (Thermochron iButton DS1921H; Maxim, Dallas) following published procedures (Sarabia et al. 2008). […]

[8] = system: patients with PD and constipation; experiment: Sleep diary (total sleep time, REM-behavior disorder); format: in vivo, human; conditions: beyond 125 mg
Procedure: FIG. 3 is a chart of total sleep time in relation to squalamine dose. Total sleep time was obtained from the sleep diary by subtracting awake time during the night from total time spent in bed. Total sleep time per night was logged for each patient at baseline, each dosing period and at washout, and the means were determined. The light grey bar represents the baseline value for each cohort at a given dose level and the dark grey bar represents the value for the same cohort at the stated dose of squalamine (ENT-01). The number of patients represented at each value are: Baseline, 33; 75 mg, 21; 100 mg, 28; 125 mg, 18; 150 mg, 15; 175 mg, 12; 200 mg, 7; 225 mg, 3; 250 mg, 2; washout, 33. P values were as follows: 75 mg, p=0.4; 100 mg, p=0.1; 125 mg, p=0.3; 150 mg, p=0.07; 175 mg, p=0.03; 200 mg, p=0.3; 225 mg, p=0.5; 250 mg, p=0.3; wash-out, p=0.04 (paired t test).
(5) Sleep Diary (participants completed a sleep diary on a daily basis throughout the study. The diaries included time into bed and estimated time to sleep as well as wake time and duration during the night); […]

[9] = system: patients with PD and constipation; experiment: Circadian rhythm of wrist skin temperature; format: in vivo, human; conditions: for effect on circadian rhythm of skin temperature: oral administration, 12 patients with evaluable data
Procedure: (6) I-Button Temperature Assessment. The I-Button is a small, rugged self-sufficient system that measures temperature and records the results in a protected memory section. The Thermochron I-Button DS1921H (Maxim Integrated, Dallas, Tex.) was used for skin temperature measurement. I-Buttons were programmed to sample every 10 mins., and attached to a double-sided cotton sport wrist band using Velcro, with the sensor face of the I-Button placed over the inside of the wrist, on the radial artery of the dominant hand. Subjects removed and replaced the data logger when necessary (i.e., to have a bath or shower). The value of skin temperature assessment in sleep research is that the endogenous skin warming resulting from increased skin blood flow is functionally linked to sleep propensity. From the collected data, the mesor, amplitude, acrophase (time of peak temperature), Rayleight test (an index of interdaily stability), mean waveforms are calculated);
Assessments were made at baseline and at the end of the fixed dose and washout periods. Circadian system status was evaluated by continuously monitoring wrist skin temperature (Thermochron iButton DS1921H; Maxim, Dallas) following published procedures (Sarabia et al. 2008).
Circadian rhythm of skin temperature was evaluable in 12 patients (i.e., those who had recordings that extended from baseline through washout). Circadian system functionality was evaluated by continuously monitoring wrist skin temperature using a temperature sensor (Thermochron iButton DS1921H; Maxim, Dallas, Tex.) (Sarabia et al. 2008). A nonparametric analysis was performed for each participant to characterize DST as previously described (Sarabia et al. 2008; Ortiz-Tudela et al. 2010).
Briefly, this analysis includes the following parameters: (i) the inter-daily stability (the constancy of 24-hour rhythmic pattern over days, IS); (ii) intra-daily variability (rhythm fragmentation, IV); (iii) average of 10-minute intervals for the 10 hours with the minimum temperature (L10); (iv) average of 10-minute intervals for the 5 hours with the maximum temperature (M5) and the relative amplitude (RA), which was determined by the difference between M5 and L10, divided by the sum of both. Finally, the Circadian Function Index (CFI) was calculated by integrating IS, IV, and RA. Consequently, CFI is a global measure that oscillates between 0 for the absence of circadian rhythmicity and 1 for a robust circadian rhythm (Ortiz-Tudela et al. 2010).

[10] = rats, prior studies; cited from earlier work
[11] = dogs, prior studies; cited from earlier work
[12] = mice, prior studies; cited from earlier work
[13] = Stage 2, fixed dose, n = 34, weekly average
[14] = Stage 2, fixed dose, n = 34, weekly average, listed as aminosterol

For CC(C)[C@@H](CC[C@@H](C)[C@H]1CC[C@H]2[C@@H]3[C@H](O)C[C@H]4C[C@@H](NCCCNCCCCN)CC[C@]4(C)[C@H]3CC[C@]12C)OS(=O)(=O)O [squalamine], the “systemic absorption following oral administration” value [1] is listed as “not significantly absorbed into the systemic circulation”, the gastro-intestinal motility [2] is listed as “stimulates gastro-intestinal motility” and the “effect on IPANs of the ENS” value [3] is listed as “excitation of IPANs”. The “gastrointestinal motility after intravenous administration” value [4] was “not associated with increased gastrointestinal motility”.

In the case of CC(C)[C@@H](CC[C@@H](C)[C@H]1CC[C@H]2[C@@H]3[C@H](O)C[C@H]4C[C@@H](NCCCNCCCCN)CC[C@]4(C)[C@H]3CC[C@]12C)OS(=O)(=O)O (single isomer, unassigned) [squalamine (ENT-01), squalamine], the “CSBM (mean, SD)” value [5, 13] is reported as 3.8 CSBM/week and 3.8 (2.4) CSBM/week, the “Suppository use / rescue medication (mean, SD)” value [5, 13] is reported as 0.3 /week and 0.3 (0.67) /week and the “CSBM (mean, SD)” value [5, 14] is reported as 3.8 CSBM/week. For the same molecule, the “SBM (mean, SD)” value [5, 14] was 4.5, the “Suppository use / rescue medication (mean, SD)” value [5, 14] was 0.3 /week and the “prokinetic dose (mean)” value ([5]; patients with baseline ≥1 CSBM/week) was 120 mg. For the same molecule, the “Diarrhea, Mild” value ([6]; Stage 2 (34 dosed)) was 12 (35)^ n, %, the “Difficulty falling asleep, Mild” value ([6]; Stage 2 (34 dosed)) was 1 (3)^ n, % and the “Eye infection, Mild” value ([6]; Stage 2 (34 dosed)) was 1 (3)^ n, %. For the same molecule, the “Flatulence, Mild” value ([6]; Stage 2 (34 dosed)) was 1 (3)^ n, %, the “Nausea, Mild” value ([6]; Stage 2 (34 dosed)) was 18 (52)^ n, % and the “Urinary retention, Mild” value ([6]; Stage 2 (34 dosed)) was 1 (3)^ n, %. The “Urinary tract infection, Mild” value ([6]; Stage 2 (34 dosed)) was 1 (3)^ n, %, the “Worsening hemorrhoid, Mild” value ([6]; Stage 2 (34 dosed)) was 1 (3)^ n, % and the “patients with worsening of hemorrhoids” value ([6]; all dosed, 1/44) was 2.2%. For the same molecule, the “patients with worsening of acid reflux” value ([6]; all dosed, 2/44) was 4.5%, the patients with flatulence ([6]; all dosed, 3/44) was 6.8% and the patients with vomiting ([6]; all dosed, 3/44) was 6.8%. The patients with dizziness ([6]; all dosed, 8/44) was 18%, the “patients with abdominal pain” value ([6]; all dosed, 11/44) was 32% and the “Serious adverse event (SAE)” value ([6]; withdrawal period, considered unrelated to study medication) was “One patient had a lower GI bleed”. The “oral bio-availability (estimated)” value [1] was “less than 0.3%”, the “oral bio-availability (estimated)” value ([1]; listed as aminosterol) was less than 0.3% and the “systemic absorption following oral administration” value ([1]; listed as aminosterol) was “negligible”. For the same molecule, the “patients in whom hallucinations and delusions improved or disappeared during treatment” value [7] was “improved or disappeared during treatment in five”, the “patients in whom hallucinations and delusions improved or disappeared during treatment” value ([7]; listed as aminosterol) was “improved or disappeared during treatment in five” and the “total sleep time vs baseline” value [8] was “consistently higher than baseline”. The “effect on circadian rhythm of skin temperature” value [9] was “significant positive impact; also recorded: improved all markers of healthy circadian function”, the “effect on circadian rhythm of skin temperature” value ([9]; listed as Aminosterol) was “improved all markers of healthy circadian function” and the “improvement of CFI during wash-out” value ([9]; wash-out period, p=0.004) was “persisted”. The “improvement of IS during wash-out” value ([9]; wash-out period, p=0.008) was “persisted”, the “systemic absorption following oral administration” value [10] was “negligible” and the “systemic absorption following oral administration” value [11] was “negligible”. The “systemic absorption following oral administration” value [12] was “negligible”.

— patent US11464789B2, “Aminosterol compositions and methods of using the same for treating schizophrenia” (Enterin, Inc., priority 2018, dated 2022)
